Experimental data published in patent US9290496B2, “Purine derivatives” (PFIZER INC., priority 2013, dated 2016).
Structures can show the parent of a compound that is named as a salt.

Legend:
Type in all cases: cell-based
[1] = molecular target: T1, EGFR wildtype, endogenous (A549) (Homo sapiens, UniProt P00533); experiment: pEGFR Y1068 ELISA assay, A549 cells; conditions: inhibition of phosphorylation of EGFR at Tyr1068; A549 NSCLC cells; 2 hr compound incubation, then stimulated 10 min with EGF (40 ng/mL)
T1 construct: A549 (EGFR wildtype, endogenous); host or cells: A549 (stimulated with EGF)
T1 sequence (P00533 25-1210): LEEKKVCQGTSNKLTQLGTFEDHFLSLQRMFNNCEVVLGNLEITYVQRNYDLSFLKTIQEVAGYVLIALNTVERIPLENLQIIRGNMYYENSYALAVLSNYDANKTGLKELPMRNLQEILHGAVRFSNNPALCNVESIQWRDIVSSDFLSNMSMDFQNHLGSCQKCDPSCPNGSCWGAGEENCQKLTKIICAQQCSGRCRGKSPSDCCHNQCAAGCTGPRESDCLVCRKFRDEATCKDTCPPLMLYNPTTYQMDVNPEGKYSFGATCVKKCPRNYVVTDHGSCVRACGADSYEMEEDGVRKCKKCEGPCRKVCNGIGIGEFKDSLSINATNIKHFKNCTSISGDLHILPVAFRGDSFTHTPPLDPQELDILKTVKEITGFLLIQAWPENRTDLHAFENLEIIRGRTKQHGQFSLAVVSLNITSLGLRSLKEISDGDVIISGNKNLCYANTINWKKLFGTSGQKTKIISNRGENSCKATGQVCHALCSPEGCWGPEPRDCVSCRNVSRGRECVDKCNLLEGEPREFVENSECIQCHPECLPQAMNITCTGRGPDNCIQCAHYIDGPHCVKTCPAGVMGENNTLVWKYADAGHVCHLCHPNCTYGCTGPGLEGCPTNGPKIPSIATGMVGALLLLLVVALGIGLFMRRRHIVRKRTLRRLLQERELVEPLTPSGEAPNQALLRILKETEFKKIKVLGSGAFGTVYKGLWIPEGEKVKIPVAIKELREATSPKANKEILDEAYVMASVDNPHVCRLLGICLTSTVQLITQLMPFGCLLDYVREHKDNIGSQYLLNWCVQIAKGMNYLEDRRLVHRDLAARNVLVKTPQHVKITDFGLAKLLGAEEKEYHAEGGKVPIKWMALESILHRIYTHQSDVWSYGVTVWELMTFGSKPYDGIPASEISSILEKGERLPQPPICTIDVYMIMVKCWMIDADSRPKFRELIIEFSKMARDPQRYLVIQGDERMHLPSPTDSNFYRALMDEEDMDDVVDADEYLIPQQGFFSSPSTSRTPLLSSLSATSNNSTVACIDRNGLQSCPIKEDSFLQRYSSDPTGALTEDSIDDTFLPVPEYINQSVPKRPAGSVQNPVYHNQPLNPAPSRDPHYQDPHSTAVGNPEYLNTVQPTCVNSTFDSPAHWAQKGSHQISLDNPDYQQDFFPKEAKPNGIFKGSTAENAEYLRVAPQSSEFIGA

[2] = molecular target: T2, EGFR L858R+T790M, endogenous (NCI-H1975) (Homo sapiens, UniProt P00533, L858R/T790M); experiment: pEGFR Y1068 ELISA assay, NCI-H1975 cells; conditions: inhibition of phosphorylation of EGFR at Tyr1068; NCI-H1975 NSCLC cells; 2 hr compound incubation
T2 construct: NCI-H1975 (EGFR L858R+T790M, endogenous); host or cells: NCI-H1975
T2 sequence (P00533 25-1210 T790M/L858R): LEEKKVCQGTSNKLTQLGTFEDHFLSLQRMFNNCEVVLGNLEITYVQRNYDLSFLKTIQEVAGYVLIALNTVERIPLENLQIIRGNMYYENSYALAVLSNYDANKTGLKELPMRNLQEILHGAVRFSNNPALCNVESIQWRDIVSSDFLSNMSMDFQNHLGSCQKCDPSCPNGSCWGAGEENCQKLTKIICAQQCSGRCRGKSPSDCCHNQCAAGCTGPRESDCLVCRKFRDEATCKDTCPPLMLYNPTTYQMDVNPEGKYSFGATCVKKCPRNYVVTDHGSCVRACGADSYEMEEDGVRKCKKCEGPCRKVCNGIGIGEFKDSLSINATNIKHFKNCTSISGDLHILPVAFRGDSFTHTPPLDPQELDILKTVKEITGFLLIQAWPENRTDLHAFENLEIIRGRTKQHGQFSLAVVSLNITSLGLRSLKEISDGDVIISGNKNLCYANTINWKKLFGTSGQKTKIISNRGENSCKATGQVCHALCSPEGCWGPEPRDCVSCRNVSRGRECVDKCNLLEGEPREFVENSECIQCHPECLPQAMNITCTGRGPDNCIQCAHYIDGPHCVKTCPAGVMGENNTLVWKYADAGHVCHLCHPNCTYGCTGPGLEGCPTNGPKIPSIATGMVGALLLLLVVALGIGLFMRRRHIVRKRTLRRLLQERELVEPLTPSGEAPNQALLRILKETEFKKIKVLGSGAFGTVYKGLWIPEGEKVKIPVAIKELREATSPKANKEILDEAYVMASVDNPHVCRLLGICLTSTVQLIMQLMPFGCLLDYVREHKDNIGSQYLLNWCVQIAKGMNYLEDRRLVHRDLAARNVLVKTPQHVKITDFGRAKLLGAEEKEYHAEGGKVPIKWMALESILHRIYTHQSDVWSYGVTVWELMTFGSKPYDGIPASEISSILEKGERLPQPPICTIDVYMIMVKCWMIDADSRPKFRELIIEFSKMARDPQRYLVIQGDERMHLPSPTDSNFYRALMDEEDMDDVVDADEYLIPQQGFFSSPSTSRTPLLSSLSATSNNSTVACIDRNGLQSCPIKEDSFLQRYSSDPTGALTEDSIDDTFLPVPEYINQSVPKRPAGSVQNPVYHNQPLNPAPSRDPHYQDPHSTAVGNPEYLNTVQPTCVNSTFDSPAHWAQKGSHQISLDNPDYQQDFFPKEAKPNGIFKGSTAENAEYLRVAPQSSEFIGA
Method: Phosphorylation of EGFR at Y1068 was measured by PathScan® Phospho-EGF Receptor (Try1068) Sandwich ELISA kit (#7240, Cell Signaling Technology®, Danvers, Mass.). The PathScan® Phospho-EGF Receptor (Tyr1068) Sandwich ELISA Kit is a solid phase sandwich enzyme-linked immunosorbent assay (ELISA) that detects endogenous levels of phospho-EGF Receptor (Tyr1068) protein. […] All cells were cultured according to ATCC recommendations. A549, NCI-H1975, PC9, and NCI-H3255 cells were grown in RPMI media (Invitrogen, Carlsbad, Calif.) supplemented with 10% FBS (Sigma, St Louis, Mo.), and with 1% Penn/Strep (Invitrogen). PC9-DRH cells were grown in RPMI with 10% FBS and 1 μM dacomitinib.
Cells were plated at 40,000/well in complete culture media (50 μL/well) on the bottom of clear tissue culture treated microtiter plates (#3595, Corning Inc, Corning, N.Y.) and allowed to adhere overnight at 37° C., 5% CO2. The following day, compound dilution plates were prepared in 96 well clear V-bottom 0.5 mL polypropylene block plates (#3956, Corning, Inc). Each compound was prepared as a DMSO stock solution (10 mM). Compounds were tested in duplicate on each plate, with an 11-point serial dilution curve (1:3 dilution). Compound treatment (50 μL) was added from the compound dilution plate to the cell plate. […] Plates were then incubated for 2 hr at 37° C., 5% CO2. For A549 (EGFR wildtype) assay, cells were plated in full-serum (10%) media for 24 hr prior to compound treatment; cells were treated in full serum media as described and then stimulated for 10 min with EGF (40 ng/mL/starvation media, Invitrogen). Immediately prior to the end of the incubation, ice-cold lysis buffer was prepared (1× Cell Lysis Buffer (#9803, Cell Signaling Technology), 1 mM sodium orthovanadate (Na3VO4, #96508, Sigma), 1 mM phenylmethanesulfonyl fluoride (PMSF, 52332, CalBiochem/EMD Chemicals), complete Mini EDTA-free Protease Inhibitor Cocktail Tablet (1 tablet/10 mL, #11836170001, Roche, Indianapolis, Ind.), and PhosSTOP Phosphatase Inhibitor Cocktail Tablet (1 tablet/10 mL, #04906837001, Roche) in pure water. At the end of 2 hr, media was flicked off and cells were washed once with ice-cold 1 mM Na3VO4 in PBS (100 μL/well, Invitrogen). The wash was then flicked off and ice-cold lysis buffer was added to the cells (50 μL/well). The plate was shaken for 20-30 min at 4° C. to completely lyse the cells. Sample diluent (50 μL/well) was added to the ELISA plate, and the lysate (50 μL) was diluted into the sample diluent in each well of the ELISA plate. Plates were sealed and incubated overnight at 4° C. with shaking. The next day, wells were washed four times with 1× Wash Buffer; plates were taped on lint-free paper after the final wash prior to adding Add Detection Antibody (green, 100 μL/well) to each well and incubating for 1 hr at 37° C. After incubation, wells were washed as described. HRP-Linked secondary antibody (red, 100 μL/well) was added to each well and incubated for 30 min at 37° C. After incubation, the wells were washed as described. TMB Substrate (100 μL/well) was added to each well and the plate incubated for 10 min at 37° C. or 30 min at rt maximum. Stop Solution (100 μL/well) was added to each well at the end of the incubation and plates were shaken gently for a few seconds. Absorbance was read at 450 nm within 30 min after addition of Stop Solution on a PerkinElmer EnVision Excite Multilabel Reader Method for Absorbance or on a Molecular Devices SpectraMax^384 Reader for absorbance. Data were analyzed using a four-parameter fit in Microsoft Excel.

EGFR del/T790M (PC9-DRH) = molecular target: T3, EGFR del/T790M (PC9-DRH) (Homo sapiens, UniProt P00533, DEL746-750/T790M); experiment: pEGFR Y1068 ELISA assay, PC9-DRH cells; conditions: inhibition of phosphorylation of EGFR at Tyr1068; PC9-DRH cells (dacomitinib resistant); 2 hr compound incubation
T3 construct: detects endogenous levels of phospho-EGF Receptor (Tyr1068) protein; endogenous in cells; host or cells: PC9-DRH (dacomitinib-resistant derivative of PC9, generated in house)
T3 sequence (P00533 with tags, fused parts or gaps DEL746-750/T790M): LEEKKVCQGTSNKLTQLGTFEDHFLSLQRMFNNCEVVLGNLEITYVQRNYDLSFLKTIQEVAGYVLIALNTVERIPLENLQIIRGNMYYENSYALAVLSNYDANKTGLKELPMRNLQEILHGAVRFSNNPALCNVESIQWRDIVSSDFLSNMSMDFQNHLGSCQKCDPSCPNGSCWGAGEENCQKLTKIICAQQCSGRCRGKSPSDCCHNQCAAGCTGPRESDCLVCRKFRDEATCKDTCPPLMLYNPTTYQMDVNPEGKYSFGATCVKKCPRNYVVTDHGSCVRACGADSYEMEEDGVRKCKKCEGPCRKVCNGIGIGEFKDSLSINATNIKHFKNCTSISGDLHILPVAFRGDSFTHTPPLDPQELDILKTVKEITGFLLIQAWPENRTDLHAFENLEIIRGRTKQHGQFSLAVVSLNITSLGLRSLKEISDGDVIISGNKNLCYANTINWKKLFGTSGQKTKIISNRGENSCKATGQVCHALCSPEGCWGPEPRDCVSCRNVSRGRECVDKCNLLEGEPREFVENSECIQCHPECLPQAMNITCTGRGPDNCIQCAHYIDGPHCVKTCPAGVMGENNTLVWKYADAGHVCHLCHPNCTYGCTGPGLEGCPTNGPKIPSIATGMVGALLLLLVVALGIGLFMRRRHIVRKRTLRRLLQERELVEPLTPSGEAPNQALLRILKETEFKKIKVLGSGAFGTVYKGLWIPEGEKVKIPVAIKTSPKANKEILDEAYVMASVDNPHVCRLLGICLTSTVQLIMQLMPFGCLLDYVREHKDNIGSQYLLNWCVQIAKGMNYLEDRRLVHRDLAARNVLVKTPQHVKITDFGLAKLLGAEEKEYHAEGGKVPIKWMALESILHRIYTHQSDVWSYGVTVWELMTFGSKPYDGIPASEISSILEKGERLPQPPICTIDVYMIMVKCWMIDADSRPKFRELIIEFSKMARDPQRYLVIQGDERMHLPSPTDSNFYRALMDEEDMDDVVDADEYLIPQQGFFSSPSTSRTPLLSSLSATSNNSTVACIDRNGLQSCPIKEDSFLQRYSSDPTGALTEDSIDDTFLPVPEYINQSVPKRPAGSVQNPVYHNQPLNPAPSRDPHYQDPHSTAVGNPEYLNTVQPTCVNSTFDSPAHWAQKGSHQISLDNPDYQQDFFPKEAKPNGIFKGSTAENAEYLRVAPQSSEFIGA
Method: The PathScan® Phospho-EGF Receptor (Tyr1068) Sandwich ELISA Kit is a solid phase sandwich enzyme-linked immunosorbent assay (ELISA) that detects endogenous levels of phospho-EGF Receptor (Tyr1068) protein. […] NCI-H3255 cells were licensed from NCI. […] All cells were cultured according to ATCC recommendations. A549, NCI-H1975, PC9, and NCI-H3255 cells were grown in RPMI media (Invitrogen, Carlsbad, Calif.) supplemented with 10% FBS (Sigma, St Louis, Mo.), and with 1% Penn/Strep (Invitrogen).
Each compound was prepared as a DMSO stock solution (10 mM). Compounds were tested in duplicate on each plate, with an 11-point serial dilution curve (1:3 dilution). Compound treatment (50 μL) was added from the compound dilution plate to the cell plate. […] Plates were then incubated for 2 hr at 37° C., 5% CO2. […] The wash was then flicked off and ice-cold lysis buffer was added to the cells (50 μL/well). The plate was shaken for 20-30 min at 4° C. to completely lyse the cells. Sample diluent (50 μL/well) was added to the ELISA plate, and the lysate (50 μL) was diluted into the sample diluent in each well of the ELISA plate. Plates were sealed and incubated overnight at 4° C. with shaking. The next day, wells were washed four times with 1× Wash Buffer; plates were taped on lint-free paper after the final wash prior to adding Add Detection Antibody (green, 100 μL/well) to each well and incubating for 1 hr at 37° C. After incubation, wells were washed as described. HRP-Linked secondary antibody (red, 100 μL/well) was added to each well and incubated for 30 min at 37° C. After incubation, the wells were washed as described. TMB Substrate (100 μL/well) was added to each well and the plate incubated for 10 min at 37° C. or 30 min at rt maximum. Stop Solution (100 μL/well) was added to each well at the end of the incubation and plates were shaken gently for a few seconds. […] Data were analyzed using a four-parameter fit in Microsoft Excel.

| IC50 [1] | IC50 [2] | IC50 (EGFR del/T790M (PC9-DRH)) | Compound |
| --- | --- | --- | --- |
| 0.119 µM | 0.011 µM | 0.002 µM | C=CC(=O)N1C[C@@H](F)[C@H](Nc2nc(Nc3ccc(N4CCN(C)CC4)cc3)c3ncn(C)c3n2)C1 (relative stereo) [Example 20, 1-((trans)-3-fluoro-4-((9-methyl-6-((4-(4-methylpiperazin-1-yl)phenyl)amino)-9H -purin-2-yl)amino)pyrrolidin-1-yl)prop-2-en-1-one] |
| 0.127 µM | 0.008 µM | 0.008 µM | C=CC(=O)N1C[C@H]2CN(c3nc(Nc4ccc(N5CCN(C)CC5)cc4)c4ncn(C(C)C)c4n3)C[C@]2(OC)C1 (single isomer, unassigned) [Example 64] |
| 0.162 µM | 0.02 µM | 0.008 µM | C=CC(=O)Nc1cccc(Oc2nc(Nc3cnn(C)c3)c3ncn(C(C)C)c3n2)c1 [Example 3, N-(3-((9-isopropyl-6-((1-methyl-1H-pyrazol-4-yl)amino)-9H-purin-2-yl)oxy)phenyl)acrylamide trifluoroacetate] |
| 0.546 µM | 0.017 µM | 0.008 µM | C=CC(=O)N[C@@H]1CN(c2nc(Nc3cn(C4CN(C)C4)nc3OC)c3ncn(C)c3n2)C[C@H]1F [Example 5, N-((3R,4R)-4-fluoro-1-(6-((3-methoxy-1-(1-methylazetidin-3-yl)-1H-pyrazol-4-yl)amino)-9-methyl-9H-purin-2-yl)pyrrolidin-3-yl)acrylamide] |
| 4.48 µM | 0.097 µM | 0.037 µM | C=CC(=O)NC1(C)CN(c2nc(Nc3cnn(C)c3)c3ncn(C(C)(C)C)c3n2)C1 [Example 8, N-(1-(9-(tert-butyl)-6-((1-methyl-1H-pyrazol-4-yl)amino)-9H-purin-2-yl)-3-methylazetidin-3-yl)acrylamide] |
| 2.74 µM | 0.032 µM | 0.026 µM | C=CC(=O)N[C@H]1CCN(c2nc(Nc3ccc(N4CCN(C)CC4)cc3)c3ncn(C(C)(C)C)c3n2)C1 [Example 9, (S)-N-(1-(9-(tert-butyl)-6-((4-(4-methylpiperazin-1-yl)phenyl)amino)-9H-purin-2-yl)pyrrolidin-3-yl)acrylamide] |
| 0.14 µM | 0.006 µM | 0.01 µM | C=CC(=O)NC1(C)CN(c2nc(Nc3ccc(N4CCN(C)CC4)cc3)c3ncn(C(C)C)c3n2)C1 [Example 12, N-(1-(9-isopropyl-6-((4-(4-methylpiperazin-1-yl)phenyl)amino)-9H-purin-2-yl)-3-methylazetidin-3-yl)acrylamide] |
| 0.507 µM | 0.088 µM | 0.091 µM | C=CC(=O)N1C[C@@H]2CN(c3nc(Nc4cnn(C)c4)c4ncn(CC)c4n3)C[C@@H]2C1 [Example 16, 1-((cis)-5-(9-ethyl-6-((1-methyl-1H-pyrazol-4-yl)amino)-9H-purin-2-yl)hexahydropyrrolo[3,4-c]pyrrol-2(1H)-yl)prop-2-en-1-one] |
| ≥ 10 µM | 0.468 µM | 2.5 µM | C=CC(=O)N1C[C@@H]2CN(c3nc(Nc4cnn(C)c4C)c4ncn(C(C)C)c4n3)C[C@@H]2C1 [Example 17, 1-((cis)-5-(6-((1,5-dimethyl-1H-pyrazol-4-yl)amino)-9-isopropyl-9H-purin-2-yl)hexahydropyrrolo[3,4-c]pyrrol-2(1H)-yl)prop-2-en-1-one] |
| 4.57 µM | 0.032 µM | 0.027 µM | C=CC(=O)N1C[C@@H]2CN(c3nc(Nc4ccc(N5CCN(C)CC5)cc4)c4ncn(C(C)(C)C)c4n3)C[C@@H]2C1 [Example 18, 1-((cis)-5-(9-(tert-butyl)-6-((4-(4-methylpiperazin-1-yl)phenyl)amino)-9H-purin-2-yl)hexahydropyrrolo[3,4-c]pyrrol-2(1H)-yl)prop-2-en-1-one] |
| 0.039 µM | 0.006 µM | 0.009 µM | C=CC(=O)Nc1cccc(Oc2nc(Nc3ccc(N4CCN(C)CC4)cc3)c3ncn(C(C)C)c3n2)c1 [Example 22, N-(3-((9-isopropyl-6-((4-(4-methylpiperazin-1-yl)phenyl)amino)-9H-purin-2-yl)oxy)phenyl)acrylamide] |
| 0.805 µM | 0.049 µM | 0.006 µM | C=CC(=O)N1C[C@@H]2CN(c3nc(Nc4cnn(C)c4)c4ncn(C(C)C)c4n3)C[C@@H]2C1 [Example 25, 1-((cis)-5-(9-isopropyl-6-((1-methyl-1H-pyrazol-4-yl)amino)-9H-purin-2-yl)hexahydropyrrolo[3,4-c]pyrrol-2(1H)-yl)prop-2-en-1-one] |
| 0.324 µM | 0.018 µM | 0.004 µM | C=CC(=O)N1C[C@@H]2CN(c3nc(Nc4ccc(N5CCN(C)CC5)cc4)c4ncn(C)c4n3)C[C@@H]2C1 [Example 33, 1-((cis)-5-(9-methyl-6-((4-(4-methylpiperazin-1-yl)phenyl)amino)-9H-purin-2-yl)hexahydropyrrolo[3,4-c]pyrrol-2(1H)-yl)prop-2-en-1-one] |
| 0.242 µM | 0.008 µM | 0.009 µM | C=CC(=O)N[C@H]1CCN(c2nc(Nc3ccc(N4CCN(C(C)C)CC4)cc3)c3ncn(C(C)C)c3n2)C1 [Example 36, (S)-N-(1-(9-isopropyl-6-((4-(4-isopropylpiperazin-1-yl)phenyl)amino)-9H-purin-2-yl)pyrrolidin-3-yl)acrylamide] |
| 0.255 µM | 0.015 µM | 0.006 µM | C=CC(=O)N[C@H]1CCN(c2nc(Nc3ccc(N4CCN(C)CC4)cc3)c3ncn(C)c3n2)C1 [Example 38, (S)-N-(1-(9-methyl-6-((4-(4-methylpiperazin-1-yl)phenyl)amino)-9H-purin-2-yl)pyrrolidin-3-yl)acrylamide] |
| 0.074 µM | 0.008 µM | 0.005 µM | C=CC(=O)N[C@H]1CCN(c2nc(Nc3ccc(N4CCN(CC)CC4)cc3)c3ncn(C(C)C)c3n2)C1 [Example 40, (S)-N-(1-(6-((4-(4-ethylpiperazin-1-yl)phenyl)amino)-9-isopropyl-9H-purin-2-yl)pyrrolidin-3-yl)acrylamide] |
| 1.35 µM | 0.026 µM | 0.038 µM | C=CC(=O)NC1(C)CN(c2nc(Nc3cnn(CCN(C)C)c3)c3ncn(C(C)C)c3n2)C1 [Example 42, N-(1-(6-((1-(2-(dimethylamino)ethyl)-1H-pyrazol-4-yl)amino)-9-isopropyl-9H-purin-2-yl)-3-methylazetidin-3-yl)acrylamide] |
| 1.48 µM | 0.074 µM | 0.018 µM | C=CC(=O)N[C@H]1CCN(c2nc(Nc3cnn(CCN(C)C)c3)c3ncn(C(C)C)c3n2)C1 [Example 43, (S)-N-(1-(6-((1-(2-(dimethylamino)ethyl)-1H-pyrazol-4-yl)amino)-9-isopropyl-9H -purin-2-yl)pyrrolidin-3-yl)acrylamide] |
| 1.15 µM | 0.024 µM | 0.007 µM | C=CC(=O)NC1(C)CN(c2nc(Nc3cnn(C4CCN(C)C4)c3)c3ncn(C(C)C)c3n2)C1 (stereo not drawn) [Example 44, N-(1-(9-isopropyl-6-((1-(1-methylpyrrolidin-3-yl)-1H-pyrazol-4-yl)amino)-9H-purin-2-yl)-3-methylazetidin-3-yl)acrylamide] |
| ≥ 10 µM | 0.742 µM | 0.006 µM | C=CC(=O)N[C@@H]1CN(c2nc(Nc3ccc(N4CCN(C)CC4)cc3)c3ncn(C(C)(C)C)c3n2)C[C@H]1F [Example 52, N-((3R,4R)-1-(9-(tert-butyl)-6-((4-(4-methylpiperazin-1-yl)phenyl)amino)-9H-purin-2-yl)-4-fluoropyrrolidin-3-yl)acrylamide] |
| 0.504 µM | 0.108 µM | 0.002 µM | C=CC(=O)NC1(C)CN(c2nc(Nc3cnn(C)c3)c3ncn(CC)c3n2)C1 [Example 56, N-(1-(9-ethyl-6-((1-methyl-1H-pyrazol-4-yl)amino)-9H-purin-2-yl)-3-methylazetidin-3-yl)acrylamide] |
| 3.04 µM | 0.089 µM | 0.044 µM | C=CC(=O)N1CCC[C@@H](Oc2nc(Nc3cnn(C)c3)c3ncn(C(C)C)c3n2)C1 [Example 57, (R)-1-(3((9-isopropyl-6-((1-methyl-1H-pyrazol-4-yl)amino)-9H-purin-2-yl)oxy)piperidin-1-yl)prop-2-en-1-one] |
| 0.049 µM | 0.005 µM | 0.002 µM | C=CC(=O)N[C@@H]1CN(c2nc(Nc3cnn(C)c3)c3ncn(C(C)C)c3n2)CC1(F)F [Example 74, (R)—N-(4,4-difluoro-1-(9-isopropyl-6-((1-methyl-1H-pyrazol-4-yl)amino)-9H-purin-2-yl)pyrrolidin-3-yl)acrylamide] |
| 0.394 µM | 0.03 µM | 0.002 µM | C=CC(=O)N[C@@H]1CN(c2nc(Nc3cn(C)nc3C)c3ncn(CC)c3n2)C[C@H]1F [Example 76, N-((3R,4R)-1-(6-((1,3-dimethyl-1H-pyrazol-4-yl)amino)-9-ethyl-9H-purin-2-yl)-4-fluoropyrrolidin-3-yl)acrylamide] |
| 0.425 µM | 0.022 µM | 0.01 µM | C=CC(=O)N[C@@H]1CN(c2nc(Nc3cn(C4CCN(C)C4)nc3C)c3ncn(CC)c3n2)C[C@H]1F (stereo partly drawn) [Example 80, N-((3R,4R)-1-(9-ethyl-6-((3-methyl-1-(1-methylpyrrolidin-3-yl)-1H-pyrazol-4-yl)amino)-9H-purin-2-yl)-4-fluoropyrrolidin-3-yl)acrylamide] |
